Several values for one entry are separate records, joined by “and”; a condition that tells them apart may be missing. Identical values can stand only once. Inconclusive results and toxic doses are left out. The calls were made as follows: active = survival T/C of 150% or more; inactive = T/C below 125% in these data.
Tested on: CD2F1 mice, L1210 leukemia ip, survival T/C
Assay: NCI In Vivo Anticancer Drug Screen. Data for tumor model L1210 Leukemia (intraperitoneal) in CD2F1 (CDF1) mice
Details: higher = longer survival
Method in brief: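 Implant tumor; dose compound or vehicle; measure endpoint in both groups; report treated divided by control.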

[1] = endpoint: mean survival time, dose: 100.0 mg/kg/injection, schedule: Q04DX002 (ip), vehicle: saline with Tween-80
[2] = endpoint: mean survival time, dose: 200.0 mg/kg/injection, schedule: Q04DX002 (ip), vehicle: saline with Tween-80
[3] = endpoint: mean survival time, dose: 100.0 mg/kg/injection, schedule: Q04DX003 (ip), vehicle: saline with Tween-80
[4] = endpoint: mean survival time, dose: 200.0 mg/kg/injection, schedule: Q04DX003 (ip), vehicle: saline with Tween-80
[5] = endpoint: mean survival time, dose: 400.0 mg/kg/injection, schedule: Q04DX003 (ip), vehicle: saline with Tween-80

Measured: T/C

Cc1nc(=S)c2ccccc2[nH]1
inactive: endpoint: mean survival time, dose: 100.0 mg/kg/injection, schedule: Q01DX001 (ip), vehicle: Klucel (hydroxypropylcellulose) (HPC) 97 % of control | endpoint: mean survival time, dose: 200.0 mg/kg/injection, schedule: Q01DX001 (ip), vehicle: Klucel (hydroxypropylcellulose) (HPC) 94 % of control | endpoint: mean survival time, dose: 400.0 mg/kg/injection, schedule: Q01DX001 (ip), vehicle: Klucel (hydroxypropylcellulose) (HPC) 100 % of control

N#CCCN(N=O)C(=O)Nc1ccccc1
inactive: endpoint: mean survival time, dose: 6.25 mg/kg/injection, schedule: Q01DX Z (ip), vehicle: carboxymethylcellulose (CMC) 110 % of control | endpoint: mean survival time, dose: 12.5 mg/kg/injection, schedule: Q01DX Z (ip), vehicle: carboxymethylcellulose (CMC) 115 % of control | endpoint: mean survival time, dose: 75.0 mg/kg/injection, schedule: Q01DX Z (ip), vehicle: carboxymethylcellulose (CMC) 102 % of control

CCCCC=CC1CCCCC1 (mixture of isomers)
inactive: endpoint: mean survival time, dose: 100.0 mg/kg/injection, schedule: Q04DX003 (ip), vehicle: saline 94 % of control | endpoint: mean survival time, dose: 200.0 mg/kg/injection, schedule: Q04DX003 (ip), vehicle: saline 94 % of control | endpoint: mean survival time, dose: 400.0 mg/kg/injection, schedule: Q04DX003 (ip), vehicle: saline 94 % of control

Cn1cnc([N+](=O)[O-])c1S(=O)(=O)NCN1CCOCC1
inactive: endpoint: mean survival time, dose: 6.25 mg/kg/injection, schedule: Q01DX009 (ip), vehicle: Klucel (hydroxypropylcellulose) (HPC) 95 % of control | endpoint: mean survival time, dose: 12.5 mg/kg/injection, schedule: Q01DX009 (ip), vehicle: Klucel (hydroxypropylcellulose) (HPC) 118 % of control and 101 % of control | endpoint: mean survival time, dose: 25.0 mg/kg/injection, schedule: Q01DX009 (ip), vehicle: Klucel (hydroxypropylcellulose) (HPC) 101 % of control and 106 % of control | endpoint: mean survival time, dose: 50.0 mg/kg/injection, schedule: Q01DX009 (ip), vehicle: Klucel (hydroxypropylcellulose) (HPC) 95 % of control and 110 % of control | endpoint: mean survival time, dose: 100.0 mg/kg/injection, schedule: Q01DX009 (ip), vehicle: Klucel (hydroxypropylcellulose) (HPC) 96 % of control

CC1(O)CCC(C)(O)CC1 (centres undefined)
inactive: endpoint: mean survival time, dose: 25.0 mg/kg/injection, schedule: Q04DX002 (ip), vehicle: saline with Tween-80 107 % of control and 103 % of control | endpoint: mean survival time, dose: 50.0 mg/kg/injection, schedule: Q04DX002 (ip), vehicle: saline with Tween-80 95 % of control and 98 % of control | [1] 107 % of control and 98 % of control | [2] 103 % of control

CCC(=O)Oc1[nH]c(C)c(C(C)=O)c1C
inactive: endpoint: mean survival time, dose: 100.0 mg/kg/injection, schedule: Q01DX009 (ip), vehicle: saline with Tween-80 100 % of control | [3] 102 % of control | endpoint: mean survival time, dose: 200.0 mg/kg/injection, schedule: Q01DX009 (ip), vehicle: saline with Tween-80 97 % of control | [4] 97 % of control | endpoint: mean survival time, dose: 400.0 mg/kg/injection, schedule: Q01DX009 (ip), vehicle: saline with Tween-80 100 % of control | [5] 94 % of control

Cn1c(=O)c2c(nc(Br)n2CC(=O)CF)n(C)c1=O
inactive: endpoint: mean survival time, dose: 12.5 mg/kg/injection, schedule: Q01DX005 (ip), vehicle: distilled water + Tween-80 97 % of control and 100 % of control and 104 % of control | endpoint: mean survival time, dose: 25.0 mg/kg/injection, schedule: Q01DX005 (ip), vehicle: distilled water + Tween-80 97 % of control (2×) and 105 % of control | endpoint: mean survival time, dose: 50.0 mg/kg/injection, schedule: Q01DX005 (ip), vehicle: distilled water + Tween-80 94 % of control and 95 % of control | endpoint: mean survival time, dose: 100.0 mg/kg/injection, schedule: Q01DX005 (ip), vehicle: distilled water + Tween-80 97 % of control (2×) and 112 % of control | endpoint: mean survival time, dose: 200.0 mg/kg/injection, schedule: Q01DX005 (ip), vehicle: distilled water + Tween-80 93 % of control and 95 % of control

CCCCCC(=O)C(CCCC)C(=O)Nc1ccccc1 (centres undefined)
inactive: [3] 94 % of control | [4] 96 % of control | [5] 91 % of control

CC1(C)C/C(=C\c2ccccc2)C(=O)c2ccccc21
inactive: endpoint: mean survival time, dose: 100.0 mg/kg/injection, schedule: Q01DX009 (ip), vehicle: other 104 % of control | endpoint: mean survival time, dose: 200.0 mg/kg/injection, schedule: Q01DX009 (ip), vehicle: other 112 % of control | endpoint: mean survival time, dose: 400.0 mg/kg/injection, schedule: Q01DX009 (ip), vehicle: other 96 % of control

O=S(O)O.O=S(O)O.[Co].[NH2-].[NH2-].[NH2-].[NH2-]
inactive: [1] 108 % of control | [2] 108 % of control | endpoint: mean survival time, dose: 400.0 mg/kg/injection, schedule: Q04DX002 (ip), vehicle: saline with Tween-80 119 % of control

CC12CCC(C(CO)C1=O)C2(C)C (centres undefined)
inactive: endpoint: mean survival time, dose: 75.0 mg/kg/injection, schedule: Q01DX001 (ip), vehicle: saline 98 % of control | endpoint: mean survival time, dose: 150.0 mg/kg/injection, schedule: Q01DX001 (ip), vehicle: saline 98 % of control | endpoint: mean survival time, dose: 300.0 mg/kg/injection, schedule: Q01DX001 (ip), vehicle: saline 98 % of control

O=C1Cc2c(nc[nH]c2=O)N1
inactive: endpoint: median survival time, dose: 50.0 mg/kg/injection, schedule: Q01DX005 (ip), vehicle: saline 101 % of control | endpoint: median survival time, dose: 100.0 mg/kg/injection, schedule: Q01DX005 (ip), vehicle: saline 97 % of control | endpoint: median survival time, dose: 200.0 mg/kg/injection, schedule: Q01DX005 (ip), vehicle: saline 92 % of control

From PubChem BioAssay AID256 (DTP/NCI, 2004)
